Structures can show the parent of a compound that is named as a salt.
What was measured:
Format in all cases: cell-based, human
[1] = tested on: HCT116 (colorectal carcinoma, K Ras G13D) cells; assay: Cell proliferation (Alamar Blue) assay, HCT116; settings: Homo sapiens, HCT-116, HCT116 cells
Method: (§1) Cell Proliferation (Alamar Blue) Assay
(§2) HT-29 (colorectal carcinoma, B-RafV600E), HCT116 (colorectal carcinoma, K Ras G13D), A375 (melanoma, B-RafV600E) and SK-Mel2 (melanoma, NRAS Q61R) cells (obtained from ATCC, USA) were seeded (5000 cells/well) in 96-well tissue culture plate and incubated at 37° C./5% CO2 for 16-24 hours. The cells were then treated with compounds, at concentrations typically from 0.0005 to 10 uM prepared in 3-fold serial dilutions. The plates were then incubated for 72 h at 37° C./5% CO2 in a moist environment. Then Alamar Blue™ reagent (final concentration 1×) was added to each well and incubated for 1-3 h at 37° C./5% CO2. The plates were read on fluorescence reader at 540 nm excitation and 590 nm emission wavelengths. The IC50 values were subsequently determined using a sigmoidal dose-response curve (variable slope) using GraphPad Prism® 5 software.

[2] = tested on: phosphorylation of RSK1(S380) (the downstream target of ERK1/2); assay: Phospho-RSK1(S380) ELISA assay in HT-29 cells; settings: Homo sapiens, HT-29, HT29 cells, phospho-RSK1(S380); read-out: Mechanistic Cell Assay RSK1 Phos HT29 IC50
Method: Phospho-RSK1(S380) ELISA Assay
HT-29 cells (colorectal carcinoma, B-RafV600E); obtained from ATCC, USA) were seeded (60,000 cells/well) in a 96-well plate and incubated at 37° C./5% CO2 overnight and then treated with desired compound dilutions for 2 h. Medium was removed and cells were rinsed once with ice-cold 1×PBS, then 0.070 mL ice-cold 1× cell lysis buffer containing 1 mM PMSF was added to each well and the plate was incubated on a shaker for 2 h and 30 min at 4° C. The plate was then centrifuged for 20 min (×4000 rpm) at 4° C. and the supernatant was transferred to a new plate. Cell lysates were diluted with sample diluent at a ratio of 1:1. The ELISA was then carried out following the manufacturer's protocol (PathScan® phospho-RSK1(Ser380) Sandwich ELISA Kit, Cell Signaling Technologies). The plate was read at 450 nm within 30 min after adding STOP solution. The IC50 values were subsequently determined using a sigmoidal dose-response curve (variable slope) in GraphPad Prism® 5 software.

[3] = tested on: HT-29 (colorectal carcinoma, B-RafV600E) cells; assay: Cell proliferation (Alamar Blue) assay, HT-29; settings: Homo sapiens, HT-29, HT29 cells
Method: as §1, §2

SMILES | IC50 [1] | IC50 [2] | IC50 [3]
Cc1cnc(Nc2ccc(F)cc2Cl)nc1-n1ccc(C(=O)N[C@H](CO)c2cccc(Cl)c2)c1 [Cmpd 29, (S)-1-(2-((2-chloro-4-fluorophenyl)-amino)-5-methyl-pyrimidin-4-yl)-N-(1-(3-chlorophenyl)-2-hydroxy-ethyl)-1H-pyrrole-3-carboxamide] |  | 250 to 500 nM | 
Cc1cnc(Nc2ccc(F)cc2)cc1-n1cnc(C(=O)NC(CN)c2ccccc2)c1 (stereo not drawn) [Compound #191, N-(2-amino-1-phenylethyl)-1-(2-((4-fluorophenyl)amino)-5-methylpyridin-4-yl)-1H-imidazole-4-carboxamide] |  | 100 to 250 nM | 
O=C(Nc1cnn(-c2ccnc(Nc3ccccc3)c2)c1)N[C@H](CO)c1cccc(Cl)c1 [Example 34, (S)-1-(1-(3-chlorophenyl)-2-hydroxy-ethyl)-3-(1-(2-(phenyl-amino)pyridin-4-yl)-1H-pyrazol-4-yl)urea] | > 2500 nM | > 2500 nM | 
O=C(NC(CO)c1cccc(Cl)c1)c1ccn(-c2ccnc(Nc3ccc(F)cc3Cl)n2)c1 (stereo not drawn) [Example 111, 1-(2-((2-chloro-4-fluorophenyl)amino)pyrimidin-4-yl)-N-(1-(3-chlorophenyl)-2-hydroxy-ethyl)-1H-pyrrole-3-carboxamide] | > 2500 nM |  | > 2500 nM
NCC(Cc1ccccc1)NC(=O)c1ccn(-c2ccnc(Nc3ccc(F)cc3)c2)c1 (stereo not drawn) [Example 119, N-(1-amino-3-phenyl-propan-2-yl)-1-(2-((4-fluoro-phenyl)amino)pyridin-4-yl)-1H-pyrrole-3-carboxamide] | > 2500 nM |  | > 2500 nM
Cc1cnc(NC2CCOCC2)nc1-n1ccc(C(=O)NC(CO)c2ccccc2)c1 (stereo not drawn) [Example 120, N-(2-hydroxy-1-phenylethyl)-1-(5-methyl-2-((tetrahydro-2H-pyran-4-yl)amino)pyrimidin-4-yl)-1H-pyrrole-3-carboxamide] | > 2500 nM |  | > 2500 nM
CC(=O)NCC(NC(=O)c1ccn(-c2cc(Nc3ccc(F)cc3)ncc2C)c1)c1ccccc1 (stereo not drawn) [Example 135, N-(2-acetamido-1-phenylethyl)-1-(2-((4-fluorophenyl)-amino)-5-methyl-pyridin-4-yl)-1H-pyrrole-3-carboxamide] |  | 500 to 2500 nM | 
O=C(NC(CO)c1cccc(Cl)c1)c1ccn(-c2ccnc(NC3CCNC3)c2)c1 (stereo not drawn) [Example 145, N-(1-(3-chloro-phenyl)-2-hydroxy-ethyl)-1-(2-(pyrrolidin-3-ylamino)pyridin-4-yl)-1H-pyrrole-3-carboxamide] |  | > 2500 nM | 
Cc1cnc(NC2(CO)CC2)nc1-n1ccc(C(=O)NC(CO)c2ccc(F)c(Cl)c2)c1 (stereo not drawn) [Example 203, N-(1-(3-chloro-4-fluorophenyl)-2-hydroxyethyl)-1-(2-((1-(hydroxymethyl)cyclopropyl)amino)-5-methylpyrimidin-4-yl)-1H-pyrrole-3-carboxamide] | > 2500 nM |  | > 2500 nM
Cc1cnc(NC2CCN(C)C2)nc1-n1ccc(C(=O)N[C@H](CO)c2cccc(Cl)c2)c1 (stereo partly drawn) [Example 208, N-((S)-1-(3-chlorophenyl)-2-hydroxyethyl)-1-(5-methyl-2-((1-methylpyrrolidin-3-yl)amino)pyrimidin-4-yl)-1H-pyrrole-3-carboxamide] | > 2500 nM |  | 500 to 2500 nM
Cc1cnc(Nc2ccc3[nH]cc(C4=CCNCC4)c3c2)nc1-n1ccc(C(=O)NC(CO)c2cccc(Cl)c2)c1 (stereo not drawn) [Example 209, N-(1-(3-chlorophenyl)-2-hydroxyethyl)-1-(5-methyl-2-((3-(1,2,3,6-tetrahydropyridin-4-yl)-1H-indol-5-yl)amino)pyrimidin-4-yl)-1H-pyrrole-3-carboxamide hydrochloride] | > 2500 nM |  | > 2500 nM
Cc1cnc(NC2CCOCC2)nc1-n1cnc(C(=O)N[C@@H](CO)c2cccc(Cl)c2)c1 [Example 217, (R)-N-(1-(3-chlorophenyl)-2-hydroxyethyl)-1-(5-methyl-2-((tetrahydro-2H-pyran-4-yl)amino)pyrimidin-4-yl)-1H-imidazole-4-carboxamide] | > 2500 nM |  | > 2500 nM
CC[C@@H](CO)Nc1ncc(C)c(-n2ccc(C(=O)N[C@@H](CO)c3cccc(Cl)c3)c2)n1 [Example 218, N-((R)-1-(3-chlorophenyl)-2-hydroxyethyl)-1-(2-(((S)-1-hydroxybutan-2-yl)amino)-5-methylpyrimidin-4-yl)-1H-pyrrole-3-carboxamide] | > 2500 nM |  | > 2500 nM
NCC(NC(=O)c1cn(-c2ccnc(Nc3ccc(F)cc3)c2)cn1)c1ccccc1 (stereo not drawn) [Example 221, N-(2-amino-1-phenylethyl)-1-(2-((4-fluorophenyl)amino)pyridin-4-yl)-1H-imidazole-4-carboxamide] | 500 to 2500 nM |  | 250 to 500 nM
Cc1cnc(Nc2ccc(F)cc2)cc1-n1cnc(C(=O)NC(CO)c2ccccc2)c1 (stereo not drawn) [Example 222, 1-(2-((4-fluorophenyl)amino)-5-methylpyridin-4-yl)-N-(2-hydroxy-1-phenylethyl)-1H-imidazole-4-carboxamide] | > 2500 nM |  | > 2500 nM
Cc1cnc(Nc2ccc(F)c(N3CCOCC3)c2)nc1-n1cnc(C(=O)NC(CO)c2cccc(Cl)c2)c1 (stereo not drawn) [Example 223, N-(1-(3-chlorophenyl)-2-hydroxyethyl)-1-(2-((4-fluoro-3-morpholinophenyl)amino)-5-methylpyrimidin-4-yl)-1H-imidazole-4-carboxamide] | 250 to 500 nM |  | 250 to 500 nM

Other lines, results leading:

IC50 [1] | IC50 [2] | IC50 [3] | SMILES
250 to 500 nM | 100 to 250 nM |  | Cc1cnc(NC2CCOCC2)nc1-n1cnc(C(=O)NC(c2cccc(Cl)c2)C(C)O)c1 (single isomer, unassigned; isomer #2) [Example 252, N-(1-(3-chlorophenyl)-2-hydroxypropyl)-1-(5-methyl-2-((tetrahydro-2H-pyran-4-yl)amino)pyrimidin-4-yl)-1H-imidazole-4-carboxamide (isomer #2)]
> 2500 nM | 500 to 2500 nM |  | Cc1cnc(Nc2ccc(Oc3ccccc3)cc2)nc1-n1cnc(C(=O)N[C@H](CO)c2cccc(Cl)c2)c1 (stereo in doubt) [Example 250, N-(1-(3-chlorophenyl)-2-hydroxyethyl)-1-(5-methyl-2-((4-phenoxyphenyl)amino)pyrimidin-4-yl)-1H-imidazole-4-carboxamide]
> 2500 nM |  | 250 to 500 nM | Cc1cnc(NC2CCCCC2)nc1-n1cnc(C(=O)NC(CO)c2cccc(Cl)c2)c1 (stereo not drawn) [Example 226, N-(1-(3-chlorophenyl)-2-hydroxyethyl)-1-(2-(cyclohexylamino)-5-methylpyrimidin-4-yl)-1H-imidazole-4-carboxamide]
500 to 2500 nM |  | ≤ 100 nM | O=C(N[C@H](CO)c1cccc(Cl)c1)c1ccn(-c2nc(NC3CCOCC3)ncc2F)c1 [Example 229, (S)-N-(1-(3-chlorophenyl)-2-hydroxyethyl)-1-(5-fluoro-2-((tetrahydro-2H-pyran-4-yl)amino)pyrimidin-4-yl)-1H-pyrrole-3-carboxamide]
> 2500 nM |  | 500 to 2500 nM | Cc1cnc(Nc2ccc(F)cc2)cc1-n1cnc(C(=O)NC(CN)c2ccc(F)cc2)c1 (stereo not drawn) [Example 230, N-(2-amino-1-(4-fluorophenyl)ethyl)-1-(2-((4-fluorophenyl)amino)-5-methylpyridin-4-yl)-1H-imidazole-4-carboxamide]
 | 500 to 2500 nM |  | Cc1cnc(NC2CCOCC2)nc1-n1cnc(C(=O)NC(CO)c2ccsc2)c1 (stereo not drawn) [Example 234, N-(2-hydroxy-1-(thiophen-3-yl)ethyl)-1-(5-methyl-2-((tetrahydro-2H-pyran-4-yl)amino)pyrimidin-4-yl)-1H-imidazole-4-carboxamide]
 | > 2500 nM |  | Cc1cnc(NC2CCOCC2)nc1-n1cnc(C(=O)NCc2sccc2CN)c1 [Example 294, N-((3-(aminomethyl)thiophen-2-yl)methyl)-1-(5-methyl-2-((tetrahydro-2H-pyran-4-yl)amino)pyrimidin-4-yl)-1H-imidazole-4-carboxamide]
 | ≤ 100 nM |  | Cc1cnc(NC2CCOCC2)nc1-n1cnc(C(=O)N[C@H](CO)c2cc(F)cc(Cl)c2)c1 [Example 295, (S)-N-(1-(3-chloro-5-fluorophenyl)-2-hydroxyethyl)-1-(5-methyl-2-((tetrahydro-2H-pyran-4-yl)amino)pyrimidin-4-yl)-1H-imidazole-4-carboxamide]
 | 500 to 2500 nM |  | Cc1cnc(NC2CCN(C)CC2)nc1-n1cnc(C(=O)N[C@H](CO)c2cccc(Cl)c2)c1 [Example 296, (S)-N-(1-(3-chlorophenyl)-2-hydroxyethyl)-1-(5-methyl-2-((1-methylpiperidin-4-yl)amino)pyrimidin-4-yl)-1H-imidazole-4-carboxamide]

Source: patent US11925629B2, “Heterocyclic inhibitors of ERK1 and ERK2 and their use in the treatment of cancer” (Asana Biosciences, LLC, priority 2015, dated 2024)
